Source: patent EP0248954B1, “Process for reducing the amount of DDT-related impurities in 1,1-bis(chlorophenyl)-2,2,2-trichloro-ethanol” (ROHM AND HAAS COMPANY, priority 1986, dated 1987)

Columns and labels:
Format in all cases: physicochemical
[1] = Single-stage extraction: partitioning of dicofol technical between n-heptane and 90% aqueous methanol
Method: A 50g sample of the desired dicofol solution was taken in a stoppered 100 ml graduated cylinder. […] They were then shaken well for two minutes. The samples were placed in an ice-water bath for 30 minutes. After the cooling period all samples were again shaken for 2 minutes. The samples were returned to the bath and allowed to equilibrate for 30 minutes. The samples were then removed from the bath and volumes recorded (Table I - Columns 2 and 3). The layers were then separated and each layer weighed (Columns 4 and 5). The separated layers were concentrated under vacuum (70°C, 1 mm Hg), weighed (columns 6 and 7) and analyzed (Table II).
In subsequent experiments, the partitioning of dicofol technical between n-heptane and 90% aqueous methanol was also evaluated at 23°C. The combined results from the 0°C and 23°C experiments are presented in Table IV where the results are expressed as distribution coefficients for dicofol and the two principal DDTr's found in dicofol technical, o,p'-DDE and p,p'-Cl-DDT. In all cases, the extractability of DDTr's exceeded that of dicofol by a significant margin.

[2] = Single-stage extraction: dicofol technical in aqueous ethanol of various concentrations partitioned with heptane; details: 30% dicofol technical solution, 50 grams, 40 grams heptane, 23°C
Method: Alternative solvent systems were evaluated. The distribution coefficients were determined by partitioning dicofol technical.
In Table VII, n-heptane was used as the extractant and different raffinate phase solvents were evaluated. In Table VIII, ethanol was used as the raffinate solvent and different extracting solvents were evaluated. In Table IX, n-heptane was used as the extractant and ethanol at different aqueous concentrations was used as the raffinate solvent. In the experiments set forth in Table IX, 30% dicofol technical solution (in the raffinate layer) was used and 50 grams of this solution was partitioned with 40 grams of the extracting solvent. In Table X, methanol was used as the raffinate solvent and different extracting solvents were evaluated. And in Table XI, using n-heptane as the extracting solvent and aqueous methanol as the raffinate solvent, the partition coefficients were determined as a function of temperature and concentration of dicofol.

[3] = Single-stage extraction: dicofol technical in aqueous methanols of various water content contacted with n-heptane; details: 50g of 33% solution of dicofol technical, 40 g n-heptane, 23°C
Method: The effect on distribution coefficients and selectivities of the amount of water in the methanol was determined. […] All distribution coefficients rise as the percentage of water increases. The selectivities rise initially but then begin to decrease at water levels higher than a maximum range. Importantly, if the water in the methanol is omitted, the addition of practical concentrations of dicofol technical causes the phases to coalesce.

[4] = dicofol technical spiked with 0.25 Wt % p,p'-DDD and separately p,p'-DDT, 50g of 33% solution in 90% aqueous methanol, 40g n-heptane, 23°C
[5] = dicofol technical spiked with 0.72 Wt % p,p'-DDD and separately p,p'-DDT, 50g of 33% solution in 90% aqueous methanol, 40g n-heptane, 23°C
[6] = dicofol technical spiked with 1.80 Wt % p,p'-DDD and separately p,p'-DDT, 50g of 33% solution in 90% aqueous methanol, 40g n-heptane, 23°C
[7] = heptane layer / raffinate layer, 50 g of dicofol solution conc. 8.4 in 90% aqueous methanol, 20 g heptane, 0 °C
[8] = heptane layer / raffinate layer, 50 g of dicofol solution conc. 10 in 90% aqueous methanol, 40 g heptane, 23 °C
[9] = heptane layer / raffinate layer, 50 g of dicofol solution conc. 16.7 in 90% aqueous methanol, 20 g heptane, 0 °C
[10] = heptane layer / raffinate layer, 50 g of dicofol solution conc. 16.7 in 90% aqueous methanol, 20 g heptane, 23 °C
[11] = heptane layer / raffinate layer, 50 g of dicofol solution conc. 20 in 90% aqueous methanol, 40 g heptane, 23 °C
[12] = heptane layer / raffinate layer, 50 g of dicofol solution conc. 30 in 90% aqueous methanol, 40 g heptane, 23 °C
[13] = heptane layer / raffinate layer, 50 g of dicofol solution conc. 33 in 90% aqueous methanol, 20 g heptane, 0 °C
[14] = heptane layer / raffinate layer, 50 g of dicofol solution conc. 40 in 90% aqueous methanol, 40 g heptane, 23 °C
[15] = heptane layer / raffinate layer, 50 g of dicofol solution conc. 50 in 90% aqueous methanol, 20 g heptane, 0 °C
[16] = heptane layer / raffinate layer, 50 g of dicofol solution conc. 50 in 90% aqueous methanol, 40 g heptane, 23 °C
[17] = ratio of DDTr D.C. to that of dicofol, dicofol solution conc. 8.4 in 90% aqueous methanol, 20 g heptane, 0 °C
[18] = ratio of DDTr D.C. to that of dicofol, dicofol solution conc. 10 in 90% aqueous methanol, 40 g heptane, 23 °C
[19] = ratio of DDTr D.C. to that of dicofol, dicofol solution conc. 16.7 in 90% aqueous methanol, 20 g heptane, 0 °C
[20] = ratio of DDTr D.C. to that of dicofol, dicofol solution conc. 16.7 in 90% aqueous methanol, 20 g heptane, 23 °C
[21] = ratio of DDTr D.C. to that of dicofol, dicofol solution conc. 20 in 90% aqueous methanol, 40 g heptane, 23 °C
[22] = ratio of DDTr D.C. to that of dicofol, dicofol solution conc. 30 in 90% aqueous methanol, 40 g heptane, 23 °C
[23] = ratio of DDTr D.C. to that of dicofol, dicofol solution conc. 33 in 90% aqueous methanol, 20 g heptane, 0 °C
[24] = ratio of DDTr D.C. to that of dicofol, dicofol solution conc. 40 in 90% aqueous methanol, 40 g heptane, 23 °C
[25] = ratio of DDTr D.C. to that of dicofol, dicofol solution conc. 50 in 90% aqueous methanol, 20 g heptane, 0 °C
[26] = ratio of DDTr D.C. to that of dicofol, dicofol solution conc. 50 in 90% aqueous methanol, 40 g heptane, 23 °C

ClC(Cl)=C(c1ccc(Cl)cc1)c1ccccc1Cl [o,p'-DDE]
Distribution coefficient (D.C.) [1, 4]: 2.4
Selectivity (Sel.) [1, 4]: 7.6
Distribution coefficient (D.C.) [1, 5]: 2.4
Selectivity (Sel.) [1, 5]: 7.2
Distribution coefficient (D.C.) [1, 6]: 2.4
Selectivity (Sel.) [1, 6]: 6.8
Distribution coefficient (D.C.) [1, 7]: 3.6
Distribution coefficient (D.C.) [1, 8]: 3.9
Distribution coefficient (D.C.) [1, 9]: 3.2
Distribution coefficient (D.C.) [1, 10]: 3.4
Distribution coefficient (D.C.) [1, 11]: 3.5
Distribution coefficient (D.C.) [1, 12]: 2.4
Distribution coefficient (D.C.) [1, 13]: 1.8
Distribution coefficient (D.C.) [1, 14]: 2.32
Distribution coefficient (D.C.) [1, 15]: 1.3
Distribution coefficient (D.C.) [1, 16]: 1.66
Selectivity (Sel.) [1, 17]: 17.3
Selectivity (Sel.) [1, 18]: 12.2
Selectivity (Sel.) [1, 19]: 16.1
Selectivity (Sel.) [1, 20]: 10.1
Selectivity (Sel.) [1, 21]: 11.0
Selectivity (Sel.) [1, 22]: 7.9
Selectivity (Sel.) [1, 23]: 10.5
Selectivity (Sel.) [1, 24]: 7.2
Selectivity (Sel.) [1, 25]: 7.9
Selectivity (Sel.) [1, 26]: 5.3
Distribution coefficient (D.C.) ([2]; 85% aqueous ethanol): 2.06
Selectivity (Sel.) ([2]; 85% aqueous ethanol): 2.78
Distribution coefficient (D.C.) ([2]; 87% aqueous ethanol): 1.28
Selectivity (Sel.) ([2]; 87% aqueous ethanol): 2.01
Distribution coefficient (D.C.) ([2]; 90% aqueous ethanol): 1.08
Selectivity (Sel.) ([2]; 90% aqueous ethanol): 1.42
Distribution coefficient (D.C.) ([3]; 4 % H₂O in Aq. MeOH): 1.5
Selectivity (Sel.) ([3]; 4 % H₂O in Aq. MeOH): 5.7
Distribution coefficient (D.C.) ([3]; 8 % H₂O in Aq. MeOH): 2.2
Selectivity (Sel.) ([3]; 8 % H₂O in Aq. MeOH): 7.7
Distribution coefficient (D.C.) ([3]; 12 % H₂O in Aq. MeOH): 3.1
Selectivity (Sel.) ([3]; 12 % H₂O in Aq. MeOH): 8.3
Distribution coefficient (D.C.) ([3]; 16 % H₂O in Aq. MeOH): 3.6
Selectivity (Sel.) ([3]; 16 % H₂O in Aq. MeOH): 6.1

Clc1ccc(C(Cl)(c2ccc(Cl)cc2)C(Cl)(Cl)Cl)cc1 [p,p'-Cl-DDT, 1,1-bis-(4-chlorophenyl)-1,2,2,2-tetrachloroethane]
Distribution coefficient (D.C.) [1, 4]: 3.7
Selectivity (Sel.) [1, 4]: 11.8
Distribution coefficient (D.C.) [1, 5]: 3.8
Selectivity (Sel.) [1, 5]: 11.4
Distribution coefficient (D.C.) [1, 6]: 3.8
Selectivity (Sel.) [1, 6]: 10.8
Distribution coefficient (D.C.) [1, 7]: 9.1
Distribution coefficient (D.C.) [1, 8]: 7.5
Distribution coefficient (D.C.) [1, 9]: 4.4
Distribution coefficient (D.C.) [1, 10]: 4.1
Distribution coefficient (D.C.) [1, 11]: 5.3
Distribution coefficient (D.C.) [1, 12]: 4.0
Distribution coefficient (D.C.) [1, 13]: 2.6
Distribution coefficient (D.C.) [1, 14]: 2.8
Distribution coefficient (D.C.) [1, 15]: 1.5
Distribution coefficient (D.C.) [1, 16]: 2.1
Selectivity (Sel.) [1, 17]: 23.3
Selectivity (Sel.) [1, 18]: 23.4
Selectivity (Sel.) [1, 19]: 22.4
Selectivity (Sel.) [1, 20]: 12.2
Selectivity (Sel.) [1, 21]: 16.8
Selectivity (Sel.) [1, 22]: 13.1
Selectivity (Sel.) [1, 23]: 14.9
Selectivity (Sel.) [1, 24]: 8.6
Selectivity (Sel.) [1, 25]: 9.4
Selectivity (Sel.) [1, 26]: 6.8
Distribution coefficient (D.C.) ([2]; 85% aqueous ethanol): 1.65
Selectivity (Sel.) ([2]; 85% aqueous ethanol): 2.22
Distribution coefficient (D.C.) ([2]; 87% aqueous ethanol): 1.48
Selectivity (Sel.) ([2]; 87% aqueous ethanol): 2.33
Distribution coefficient (D.C.) ([2]; 90% aqueous ethanol): 0.91
Selectivity (Sel.) ([2]; 90% aqueous ethanol): 1.20
Distribution coefficient (D.C.) ([3]; 4 % H₂O in Aq. MeOH): 1.9
Selectivity (Sel.) ([3]; 4 % H₂O in Aq. MeOH): 7.0
Distribution coefficient (D.C.) ([3]; 8 % H₂O in Aq. MeOH): 2.9
Selectivity (Sel.) ([3]; 8 % H₂O in Aq. MeOH): 10.1
Distribution coefficient (D.C.) ([3]; 12 % H₂O in Aq. MeOH): 4.6
Selectivity (Sel.) ([3]; 12 % H₂O in Aq. MeOH): 12.2
Distribution coefficient (D.C.) ([3]; 16 % H₂O in Aq. MeOH): 6.8
Selectivity (Sel.) ([3]; 16 % H₂O in Aq. MeOH): 11.4

Clc1ccc(C(c2ccc(Cl)cc2)C(Cl)Cl)cc1 [p,p'-DDD, 1,1-bis-(4-chlorophenyl)-2,2-dichloroethane]
Distribution coefficient (D.C.) [1, 4]: 0.66
Selectivity (Sel.) [1, 4]: 2.1
Distribution coefficient (D.C.) [1, 5]: 0.71
Selectivity (Sel.) [1, 5]: 2.1
Distribution coefficient (D.C.) [1, 6]: 0.79
Selectivity (Sel.) [1, 6]: 2.2

Clc1ccc(C(c2ccc(Cl)cc2)C(Cl)(Cl)Cl)cc1 [p,p'-DDT, 1,1-bis-(4-chlorophenyl)-2,2,2-trichloroethane]
Distribution coefficient (D.C.) [1, 4]: 1.9
Selectivity (Sel.) [1, 4]: 5.9
Distribution coefficient (D.C.) [1, 5]: 1.9
Selectivity (Sel.) [1, 5]: 5.6
Distribution coefficient (D.C.) [1, 6]: 2.1
Selectivity (Sel.) [1, 6]: 6.0
